This passage reports GI50 and TGI results from PubChem BioAssay (NCI).

Some test systems named below: TK-10 renal; SN12C renal; RXF 393 renal; MOLT-4 leukemia; CAKI-1 renal; M14 melanoma; T-47D breast; SK-MEL-28 melanoma.
Holding throughout (experiment): NCI-60 cell line screen, 48 h

SMILES strings stand for the structures. “And” between values parts separate entries of the source, which are not always exact repeats. Equal entries are not always repeated.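 Results reflect a 48-hour exposure of cells in 96-well plates to compound at five concentrations. GI50 is the concentration that inhibits growth by half. TGI is the concentration that stops growth completely.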

For `CCCCCCCCCCCC(c1ccccc1)[N+](C)(C)C` (stereo unspecified), the GI50 in the test on TK-10 renal is 788 nM; with SN12C renal, 1590 nM; with RXF 393 renal, 451 nM; in the test with MOLT-4 leukemia, 1360 nM; in the test on CAKI-1 renal, 9980 nM; in the test with M14 melanoma, 1370 nM. For the same compound, the GI50 was 1900 nM in the test on T-47D breast and 1490 nM in the test on SK-MEL-28 melanoma. Also, the TGI in the test on TK-10 renal is 2490 nM; in the test on SN12C renal it was 3770 nM; in the test with RXF 393 renal, 2260 nM; in the test with MOLT-4 leukemia, 4020 nM; in the test on CAKI-1 renal, 26000 nM; in the test with M14 melanoma, 4250 nM. Besides, the TGI with T-47D breast was 9790 nM; in the test on SK-MEL-28 melanoma, 3310 nM.
As to `CC(C)(Sc1cc(C(C)(C)C)c(O)c(C(C)(C)C)c1)Sc1cc(C(C)(C)C)c(O)c(C(C)(C)C)c1`, the TGI with TK-10 renal, with SN12C renal, with RXF 393 renal, in the test with CAKI-1 renal, with M14 melanoma and in the test with T-47D breast was greater than 100000 nM in each case. In the test with SK-MEL-28 melanoma, this compound yielded a TGI greater than 100000 nM.
For `O=C(O)CN(CCN(CC(=O)O)CC(=O)O)CCN(CC(=O)O)CC(=O)O`, the GI50 in the test with TK-10 renal was 2870 nM; with SN12C renal it was 2800 nM; in the test with RXF 393 renal, 2070 nM; in the test on MOLT-4 leukemia, 2570 nM; in the test on CAKI-1 renal it was 3580 nM; in the test with M14 melanoma, 5290 nM. In addition, the GI50 with T-47D breast was 3740 nM; in the test on SK-MEL-28 melanoma, 4050 nM. Besides, the TGI in the test on TK-10 renal was 7520 nM; in the test on SN12C renal, 13900 nM; in the test with RXF 393 renal it was 4850 nM; with MOLT-4 leukemia, 8260 nM; in the test with CAKI-1 renal, 20200 nM; in the test with M14 melanoma it was 21500 nM. Moreover, the figures for the TGI with T-47D breast and with SK-MEL-28 melanoma were 14500 nM and 17200 nM, respectively.
For the compound `CCCCCOC(=O)c1c(C)[nH]c(/C=C2\N=C(c3ccc[nH]3)C=C2OC)c1C`, the GI50 in the test with TK-10 renal is 47 nM; in the test on SN12C renal it was 48.2 nM; in the test with RXF 393 renal it was 66.4 nM; in the test with MOLT-4 leukemia it was 26.5 nM; with CAKI-1 renal it was 33.5 nM; in the test on M14 melanoma, 20.4 nM. The GI50 in the test on T-47D breast is 36.9 nM; in the test on SK-MEL-28 melanoma it was 129 nM. Also, the TGI stood at 1720 nM in the test on TK-10 renal; 1730 nM with SN12C renal; 900 nM in the test on RXF 393 renal; 1430 nM with MOLT-4 leukemia; 335 nM in the test on CAKI-1 renal; 48.1 nM in the test with M14 melanoma. The results for the TGI with T-47D breast and with SK-MEL-28 melanoma were 1370 nM and 1250 nM, respectively.
For `COc1ccc(CC(C)NCC(O)c2ccc(O)c(NC=O)c2)cc1` (stereo unspecified), the TGI with TK-10 renal, in the test with SN12C renal, in the test on RXF 393 renal, in the test with MOLT-4 leukemia, in the test with CAKI-1 renal and in the test on M14 melanoma was greater than 100000 nM each time. Further, the TGI with T-47D breast and in the test with SK-MEL-28 melanoma was greater than 100000 nM throughout.
In the case of `N#Cc1cnc2ccc(NCc3cnc[nH]3)cc2c1Nc1ccc(F)c(Cl)c1`, the GI50 with TK-10 renal was 2770 nM; in the test with SN12C renal it was 4170 nM; in the test with RXF 393 renal, 7030 nM; in the test with MOLT-4 leukemia, greater than 100000 nM; with M14 melanoma, 14300 nM; in the test with T-47D breast, 4680 nM. Besides, the GI50 in the test with SK-MEL-28 melanoma is 17300 nM. In addition, the TGI is 97200 nM in the test with TK-10 renal; greater than 100000 nM in the test on SN12C renal; greater than 100000 nM with RXF 393 renal; greater than 100000 nM with MOLT-4 leukemia; greater than 100000 nM in the test with M14 melanoma; greater than 100000 nM in the test with T-47D breast. In the test with SK-MEL-28 melanoma, this compound returned a TGI of 58400 nM.
Consider `CC[C@@H]1C(=O)N(C)c2cnc(Nc3ccc(C(=O)NC4CCC(N5CCN(CC6CC6)CC5)CC4)cc3OC)nc2N1C(C)C` (stereo partly specified), for which the GI50 is 128 nM and 77.6 nM with TK-10 renal; 91.7 nM and 173 nM in the test with SN12C renal; 34.9 nM and 39.3 nM in the test with RXF 393 renal; 11.6 nM and 19 nM with MOLT-4 leukemia; 109 nM and 390 nM in the test with CAKI-1 renal; 9.63 nM and 34.9 nM in the test with M14 melanoma. The GI50 was 155 nM and 113 nM with T-47D breast; 73.7 nM and 66.9 nM in the test with SK-MEL-28 melanoma. The TGI in the test with TK-10 renal is > 10000 nM and 8620 nM; with SN12C renal, > 10000 nM and 15100 nM; with RXF 393 renal, > 9080 nM and 4900 nM; with MOLT-4 leukemia, > 5380 nM and 1280 nM; with CAKI-1 renal, > 10000 nM and 10700 nM; in the test on M14 melanoma, > 3810 nM and 2390 nM. For the same compound, the TGI with T-47D breast was > 10000 nM and 21900 nM; in the test with SK-MEL-28 melanoma, 2640 nM and 3160 nM.
Regarding `N#Cc1nc2cc(Cl)c(Cl)cc2nc1-c1ccc(Cl)cc1`, the GI50 with TK-10 renal was 21300 nM; in the test with SN12C renal, 28500 nM; with RXF 393 renal it was 11200 nM; with MOLT-4 leukemia, 26900 nM; in the test with CAKI-1 renal it was 34000 nM; with M14 melanoma it was greater than 85300 nM. The results for the GI50 in the test with T-47D breast and in the test on SK-MEL-28 melanoma were greater than 66100 nM and greater than 92000 nM, respectively. Also, the TGI in the test on TK-10 renal is 46300 nM; in the test with SN12C renal, greater than 78600 nM; with RXF 393 renal it was greater than 42600 nM; in the test on MOLT-4 leukemia, greater than 60400 nM; in the test on CAKI-1 renal, greater than 66800 nM; in the test on M14 melanoma, greater than 100000 nM. In addition, the TGI in the test on T-47D breast and in the test on SK-MEL-28 melanoma was greater than 100000 nM throughout.
`CN1CCN(CCCOC(=O)c2c3c(n4ccccc24)C(=O)c2ncccc2C3=O)CC1`: the GI50 with TK-10 renal was 113 nM; with SN12C renal, less than 10 nM; in the test with RXF 393 renal, less than 11.8 nM; in the test on MOLT-4 leukemia it was 60.4 nM; with CAKI-1 renal, less than 10 nM; in the test on M14 melanoma, less than 14.9 nM. In addition, the GI50 was 1890 nM with T-47D breast and 80 nM in the test with SK-MEL-28 melanoma. Further, the TGI with TK-10 renal was found to be 21600 nM; with SN12C renal it was 294 nM; with RXF 393 renal, 30.3 nM; in the test on MOLT-4 leukemia, 23400 nM; with CAKI-1 renal it was 366 nM; in the test with M14 melanoma, 253 nM. Moreover, the values for the TGI with T-47D breast and in the test on SK-MEL-28 melanoma were 29600 nM and 4250 nM, respectively.
Turning to `CN1CCN(c2cc(F)c(NC3=C(Cl)C(=O)c4ncccc4C3=O)c(F)c2)CC1`, the GI50 in the test on TK-10 renal was 1810 nM; with SN12C renal it was 1700 nM; in the test with RXF 393 renal, 1640 nM; in the test on MOLT-4 leukemia, 2400 nM; in the test on CAKI-1 renal it was 1270 nM; in the test with M14 melanoma, 1820 nM. Also, the results for the GI50 in the test with T-47D breast and in the test with SK-MEL-28 melanoma were 1820 nM and 1880 nM, respectively. For the same compound, the TGI in the test on TK-10 renal was 3320 nM; in the test with SN12C renal it was 3290 nM; in the test with RXF 393 renal, 3100 nM; in the test on MOLT-4 leukemia, 8830 nM; in the test with CAKI-1 renal, 2520 nM; in the test on M14 melanoma, 3390 nM. In addition, the TGI in the test on T-47D breast was determined as 4610 nM; in the test with SK-MEL-28 melanoma, 3360 nM.
